These are literature values, as cited in patent US20240156825A1, “USE OF SELECTIVE VEGFR2 AND FGFR1 INHIBITORS” (Fountain Therapeutics Inc., priority 2022, published 2024).

pIC50: −log10 of the molar value. Like-named read-outs stand apart in the source and are kept apart here.

The data set has as its system any gene target. The settings on record: read-out: Min IC50_μM, cited from earlier work.
Where [1] appears, read: next lowest IC50 value to any gene target.
Where [2] appears, read: Table 2, lowest reported IC50 to any gene target.
[3] abbreviates: lowest reported IC50 to any gene target.
The mark [4] stands for this setting: next lowest IC50 value to any gene target, Table 3.

As for `COc1cc2ncnc(Oc3ccc4c(C(N)=O)cccc4c3)c2cc1OC` [compound 24823094], the pIC50 under setting [1] is 6.17.

On to `CNC1CCN(CCCN(c2cc(OC)cc(OC)c2)c2ccc3ncc(-c4cnn(C)c4)nc3c2)C1` (stereo not drawn) [compound 134140450], for which the pIC50 under setting [2] was 8.65.

Consider `CN1CCN(CCCNc2ncc3cc(-c4c(Cl)cccc4Cl)c(NC(=O)NC4CCCCC4)nc3n2)CC1` [compound 5328158], for which, under setting [3], the pIC50 is 7.51.

Consider `COc1cc2nccc(Oc3ccc(NC(=O)Nc4cc(C)on4)c(Cl)c3)c2cc1OC` [compound 118737468], for which, under setting [1], the pIC50 is 8.49.

`CNCCN(c1cc(OC)cc(OC)c1)c1ccc2ncc(-c3cnn(CC(=O)NC)c3)nc2c1` [compound 68208748]: under setting [2], the pIC50 was 8.59.

`COc1cc(OC)cc(N(CC#Cc2cc(C)ccn2)c2ccc3ncc(-c4cnn(C)c4)nc3c2)c1` [compound 67466880]: the pIC50 under setting [3] was 8.03.

As for `COc1cc(OC)cc(N(CC#Cc2cc(C(N)=O)ccn2)c2ccc3ncc(-c4cnn(C)c4)nc3c2)c1` [compound 89447328], under setting [2], the pIC50 was 8.61.

On to `COc1cc2c(Nc3ccc(Br)cc3F)ncnc2cc1OCC1CCN(C)CC1` [compound 3081361], for which the pIC50 under setting [1] was 7.96.

Take `c1ccc(-c2cnc3c(Nc4ccc(N5CCCCC5)cc4)cncc3n2)cc1` [compound 127030424]: under setting [1], the pIC50 is 5.63.

As for `CNCC(O)CN(c1cc(OC)cc(OC)c1)c1ccc2ncc(-c3cnn(C)c3)nc2c1` (stereo not drawn) [compound 134149546], the pIC50 under setting [3] was 8.55.

For `COc1cc(OC)cc(N(CCN2CCCCC2C)c2ccc3ncc(-c4cnn(C)c4)nc3c2)c1` (stereo not drawn) [compound 134146514], the pIC50 under setting [2] was 8.60.

In the case of `COc1cc(OC)cc(N(CCCN2CCC(F)(F)C2)c2ccc3ncc(-c4cn[nH]c4)nc3c2)c1` [compound 134142457], the pIC50 under setting [2] is 7.98.

As to `COc1cc(OC)cc(N(CCN2CCC[C@H]2C)c2ccc3ncc(-c4cnn(C)c4)nc3c2)c1` [compound 134145938], the pIC50 under setting [2] is 8.70.

In the case of `COc1ccc(OC)c(N(CCCN2CCCC2)c2ccc3ncc(-c4cnn(C)c4)nc3c2)c1` [compound 134157453], under setting [3], the pIC50 was 7.42.

`COc1cc(OC)cc(N(CCN2CCCC2)c2ccc3ncc(-c4cnn(C)c4)nc3c2)c1` [compound 134156523]: the pIC50 under setting [2] was 8.75.

With `COc1cc(OC)cc(N(CCNC(C)C)c2ccc3ncc(-c4cnn(CC5CCOCC5)c4)nc3c2)c1` [compound 134141677], the pIC50 under setting [2] is 8.66.

As to `Nc1[nH]nc2nccc(-c3ccc(NC(=O)Nc4cccc(C(F)(F)F)c4)cc3)c12` [compound 11495270], the pIC50 under setting [1] is 8.70.

On to `COc1cc(OC)cc(N(c2ccc3ncc(-c4cnn(C)c4)nc3c2)C(C)CNC(C)C)c1` (stereo not drawn) [compound 68208877], for which the pIC50 under setting [2] was 8.31.

On to `COc1cc(OC)cc(N(CCN2CCC(N(C)C)CC2)c2ccc3ncc(-c4cnn(C)c4)nc3c2)c1` [compound 68209057], for which the pIC50 under setting [3] is 8.29.

For `COc1cc(OC)cc(N(CCCN2CCC(N3C[C@@H](C)O[C@@H](C)C3)C2)c2ccc3ncc(-c4cnn(C)c4)nc3c2)c1` (stereo partly drawn) [compound 134155786], the pIC50 under setting [2] is 8.34.

Turning to `COc1cc(OC)cc(N(CCN2CCC(CCO)CC2)c2ccc3ncc(-c4cnn(C)c4)nc3c2)c1` [compound 68208907], the pIC50 under setting [2] was 8.54.

For the compound `CCOC(=O)C1CCN(CCN(c2cc(OC)cc(OC)c2)c2ccc3ncc(-c4cnn(C)c4)nc3c2)CC1` [compound 68209310], under setting [3], the pIC50 is 8.47.

As for `COc1cc(OC)cc(N(CCN2CCN(C(=O)C3CC3)CC2)c2ccc3ncc(-c4cnn(C)c4)nc3c2)c1` [compound 89447346], the pIC50 under setting [3] is 8.11.

For `Cc1ccc(Nc2nccc(N(C)c3ccc4c(C)n(C)nc4c3)n2)cc1S(N)(=O)=O` [compound 10113978], the pIC50 under setting [1] is 8.00.

Turning to `COc1cc(OC)cc(N(CCCN2C[C@@H](C)O[C@@H](C)C2)c2ccc3ncc(-c4cnn(C)c4)nc3c2)c1` [compound 89447204], under setting [2], the pIC50 was 8.45.

With `COc1cc2nccc(Oc3ccc(NC(=O)NC4CC4)c(Cl)c3)c2cc1C(N)=O` [compound 9823820], the pIC50 under setting [1] was 8.28.

Turning to `COc1cc(OC)cc(N(CCCN2CCC(N)C2)c2ccc3ncc(-c4cnn(C)c4)nc3c2)c1` (stereo not drawn) [compound 68209028], under setting [2], the pIC50 is 8.85.

For the compound `COc1cc(OC)cc(N(CCCc2cc(C)ccn2)c2ccc3ncc(-c4cnn(C)c4)nc3c2)c1` [compound 68208924], the pIC50 under setting [3] is 7.97.

Regarding `Oc1ccc(-c2cnn3cc(-c4ccc(OCCN5CCOCC5)cc4)cnc23)cc1O` [compound 52944268], under setting [4], the pIC50 was 9.00.

`COc1ccc(-c2ccc(NC(=O)Nc3cc(C)ccc3F)cc2)c2c(N)noc12` [compound 11429654]: the pIC50 under setting [1] is 7.62.

As to `COc1cc2c(Nc3ccc(Cl)c(Cl)c3F)ncnc2cc1OC[C@@H]1CN2CCCC[C@H]2C(=O)N1` [compound 57802612], the pIC50 under setting [4] was 7.30.

For the compound `C[C@@H](Nc1ncnc2[nH]c(-c3ccc(CNCCCCCCCC(=O)NO)cc3)cc12)c1ccccc1` [compound 24900644], under setting [1], the pIC50 is 7.00.

For `CNCCN(c1cc(OC)cc(OC)c1)c1ccc2ncc(-c3cnn(C(C)C)c3)nc2c1` [compound 134133926], the pIC50 under setting [2] was 8.54.

In the case of `CCNC(=O)Nc1ccc(Oc2ncnc(N)c2/C=N/OC)cc1Cl` [compound 16742063], the pIC50 under setting [1] was 6.74.

Consider `COc1cc(OC)cc(N(CCNC(C)C)c2ccc3ncc(-c4cn[nH]c4)nc3c2)c1` [compound 134148952], for which the pIC50 under setting [2] was 8.47.

Regarding `CCn1cc(-c2cnc3ccc(N(CCNC)c4cc(OC)cc(OC)c4)cc3n2)cn1` [compound 68208927], the pIC50 under setting [2] was 8.45.

In the case of `COc1cc(OC)cc(N(CC#Cc2cc(CO)ccn2)c2ccc3ncc(-c4cnn(C)c4)nc3c2)c1` [compound 89447343], the pIC50 under setting [2] is 8.47.

For the compound `COc1cc(OC)cc(N(CCNC(C)C)c2ccc3ncc(-c4c(C)nn(C)c4C)nc3c2)c1` [compound 134138098], under setting [2], the pIC50 is 7.97.

Regarding `C=CC(=O)N1CCN(CCCn2c(=O)c(-c3c(Cl)c(OC)cc(OC)c3Cl)cc3cnc(NC)nc32)CC1` [compound 118295624], under setting [2], the pIC50 is 8.89.

For `COc1cc(OC)cc(N(CC#Cc2nccc(OC)n2)c2ccc3ncc(-c4cnn(C)c4)nc3c2)c1` [compound 67467703], the pIC50 under setting [2] was 8.13.

`O=C(Nc1ccc(Cl)cc1)c1ccccc1NCc1ccncc1` [compound 9797919]: under setting [1], the pIC50 is 6.74.

As to `Cc1cccc(NC(=O)Nc2ccc(-c3cncc4c3c(N)nn4C)cc2)c1` [compound 11588815], the pIC50 under setting [1] was 8.70.

Regarding `Cc1cccc(NC(=O)Nc2ccc(-c3csc4ncnc(N)c34)cc2)c1` [compound 6539985], the pIC50 under setting [1] was 8.70.

As for `COc1cc(OC)cc(N(CCNC(C)C)c2ccc3ncc(-c4cnn(C)c4C)nc3c2)c1` [compound 68209154], the pIC50 under setting [2] was 8.33.

With `COc1cc(OC)cc(N(CCN2CCC(N)C2)c2ccc3ncc(-c4cnn(C)c4)nc3c2)c1` (stereo not drawn) [compound 134157853], under setting [2], the pIC50 was 8.70.

In the case of `COc1ccc(Cl)c(N(CCNC(C)C)c2ccc3ncc(-c4cnn(C)c4)nc3c2)c1` [compound 134153603], the pIC50 under setting [2] is 8.43.

`CNCCN(c1cc(OC)cc(OC)c1)c1ccc2ncc(-c3cnn(CC(=O)NC)c3)nc2c1` [compound 134131862]: under setting [2], the pIC50 was 8.62.

On to `COc1cccnc1C#CCN(c1ccc2ncc(-c3cnn(C)c3)nc2c1)c1c(Cl)c(OC)cc(OC)c1Cl` [compound 89447340], for which the pIC50 under setting [2] was 8.23.
